Reference: patent US5393786A, “Method for treating inflammation, ischemia-induced cell damage and muscular dystrophy” (priority 1993, dated 1995)
Read-outs that look alike come from different tables or passages of the source.

Experiments:
[1] = test system: adjuvant-induced arthritis (uninjected hind paw); assay: Developing Adjuvant-Induced Arthritis Test in Rats; assay type: in vivo, male Lewis-Wistar rats; conditions: po, 720 h, AUC days 16-30
[2] = test system: striatal cell layer of the striatum; assay: Stroke model in rats (four-vessel occlusion), striatal damage; assay type: in vivo, male Wistar rats
Description: (§1) Strokes were produced in rats by occluding the four arteries that supply blood to the brain according to the following procedure. Male Wistar rats (250-280 g; Hilltop Laboratories, Scottsdale, Pa.) were anesthetized with metofane and placed into a stereotaxic instrument. A longitudinal incisio was made on the dorsal surface of the neck. The neck muscles were reflected to expose the dorsal surface of the spinal column. The two vertebral arteries were exposed where they pass through the first cervica vertebra. Both arteries were permanently occluded by the application of electrocautery. After coagulation of the vertebral arteries, the rat was removed from the stereotaxic instrument and the surgical wound was sutured. Two longitudinal incisions were then made on the ventral surface of the neck. The two common carotid arteries were exposed and dissected free from surrounding nerves and connective tissue. Reversible atraumatic clamps, fabricated mainly from silicon rubber tubing, were placed around each carotid artery in a manner such that the vessels were not traumatize or occluded. The clamps were externalized through the ventral neck incision. A suture was also placed through the neck dorsal to the carotids, esophagus and trachea, and tied loosely behind the neck. This suture is tied tightly at the time ischemia is induced in order to restrict collateral circulation reaching the brain through the dorsal muscles of the neck. The surgical wounds were then closed. After the surgery, the rats were allowed to recover for 24 hours (free access to water, but no food during this period).
(§2) On the day of testing, test compounds were administered at various times before stroke induction. Strokes (cerebral ischemia) were induced by tightening the clamps around the carotids, thereby stopping blood flow in the carotids. Rats in which strokes were successfully produced lost the righting reflex and became unresponsive to stimuli. Collateral circulatio through the dorsal neck muscles was then restricted by tightening the previously implanted suture. […] After 30 minutes of ischemia, the carotid clamps wer released, the neck suture was loosened, and blood flow to the brain was restored. Following the period of ischemia, the rats were allowed free access to food and water. Rats were again treated with test compounds at various times after the stroke. On the third day after the stroke the animals were sacrificed and their brains were removed, frozen and sectioned through the striatum and hippocampus. Sections were mounted on glass slides and stained with hematoxylin and eosin.
(§3) Two of the areas of the brain that are most susceptible to ischemia induce damage, both in rats and humans, are the CA1 pyramidal cell layer of the hippocampus and the striatal cell layer of the striatum. In animals that remain unresponsive for the 30 minute period of ischemia, the CA1 pyramidal cell layer and the striatal cell layer are completely destroyed. These layers of cells were examined microscopically in histological sections prepared from the hippocampus and striatum. Brain damage was rated according to the following scale:
(§4) 0=no damage, completely intact cell layer
(§5) 1=mild damage, onethird of cell layer dead
(§6) 2=moderate damage, twothirds of cell layer dead
(§7) 3=severe damage, complete destruction of cell layer
(§8) Damage in 10-12 sections from each brain was assessed in order to obtain a accurate estimate of damage. An average damage score was calculated for each treatment group. Scores from treated groups were compared statistically with scores from control groups which received only the vehicle used to suspend the compounds. The level of significance was determined using the Mann WhitneyU-test.

[3] = test system: ischemia-induced cell damage caused by middle cerebral artery occlusion; assay: Middle Cerebral Artery Occlusion Stroke Model; assay type: in vivo, male spontaneously hypertensive rats; conditions: saline
Text: Strokes were also produced in rats by occluding the middle cerebral artery according to the following procedure. Male spontaneously hypertensive rats were housed in groups of three to four per cage and allowed free access to food and water. The animals were anesthetized with a mixture of 2.5% halothane and air. The anesthetized rats then underwent the following surgical procedure.
A femoral artery of each rat was cannulated to monitor mean arterial pressure and a jugular cannula was inserted in order to provide a means for administering test compounds intravenously. […] The ventral neck area and the area behind each animal's right eye were shaved and washed with antiseptic solution. The right common carotid artery was dissected free of connective tissue through a midline cervical incision and the vessel permanently occluded with a silk ligature. Next, a 1 cm incision perpendicular to, and bisecting a line between the lateral canthus of the right eye and the external auditory canal, was made to expose the temporalis muscle which was retracted and partially excised. Using a dissecting microscope, the right middle cerebral artery was exposed through a 2 mm burr hole drilled 2-3 mm rostral to the fusion of the zygomatic arch with a squamosal bone. Drilling was done under a continuous drip of a 0.9% saline solution to prevent heat injury of the underlying cortex. The dura was cut and retracted to expose the middle cerebral artery.
This artery was occluded in two ways. The first method of occlusion involved permanent cauterization of the artery so that blood flow through the artery was completely eliminated. The second method of occulsion was only temporary (lasting two hours) and involved clamping the artery with microaneurism clips. Test compounds were administered at various times before, during and after occlusion. Each animal's body temperature was maintained at 37° C. during testing using a rectal thermometer connected to a heating pad.
Twenty-four hours after tandem middle cerbral carotid artery occlusion, the test animals were sacrificed and their brains removed and frozen over dry ice. Coronal sections 20 microns thick were cut at half millimeter intervals in a cryostat at -20° C. and dried on a hot plate at 60° C. The sections were then stained with cresyl violet. […] A total infarct volume was then calculated using a computer program that summed all sectional areas measured multiplied by the interval thickness. The lower the infarcted volume obtained, the lower the amount of cell damage caused by the stroke. The level of significance was obtained using Student's "t-test".

[4] = test system: hippocampal CA1 pyramidal cell layer; assay: Stroke model in rats (four-vessel occlusion), hippocampal CA1 damage
Description: as §1, §2, §3, §4, §5, §6, §7, §8

dystrophic mice (dy/dy) = assay: Muscular Dystrophy Animal Model, life span of dystrophic mice; assay type: in vivo; conditions: 0.03 wgt % of compound in diet; control 73 days
Description: Dystrophic mice (dy/dy) were obtained from Jackson Laboratories after weaning (approximately 21 days) and treatment with the compound shown in Table IV was begun at the first sign of dystrophy. The compound was administered in the diet and lifespan was measured during the course of treatment. The food and water sources were located in different parts of the cage requiring the animals to walk from the food source to the water source to survive.

[5] = Chemical Abstracts, 74, 96312e (1971); cited from earlier work
[6] = Chemical Abstracts, 78, 132326f (1973); cited from earlier work
[7] = 50 mg/kg rat weight × 29, p.o. once daily, read-out: % Inhibition of Uninjected Paw Volume Inflammation, Days 16-30

In the case of `CN(C)Cc1cc(C(C)(C)C)c(O)c(C(C)(C)C)c1.Cl` [4-[(dimethylamino)methyl]-2,6-bis(1,1-dimethylethyl)phenol hydrochloride], the inhibition in vivo at 50 mg/kg ([1]; Rattus norvegicus, read-out: % Inhibition of Uninjected Paw Volume Inflammation, Days 16-30, 50 mg/kg rat weight × 29, p.o. once daily) is reported as 94.8%, the “Damage Score, Striatum” value ([2]; scale 0 (no damage)-3 (severe), mean ± SE, 50 mg/kg orally, 2% acacia, time a (15 min pre, 4 h and 24 h postischemia), control 2.6 ± 0.2) is reported as 1.1 ± 0.2 and the “Infarct Volume” value ([3]; permanent occlusion, 50/10 mg/kg i.v. (per hour), time c (15 min before occlusion, then 24 h), control 136 ± 7) is reported as 91 ± 12 (mm)^3. For the same molecule, the “Infarct Volume” value ([3]; temporary occlusion, 50/50/10 mg/kg i.p./i.p./i.v. (per hour), time a (15 min before clamping, 15 min before clamp removal, then 24 h), control 114.4 ± 14.1) was 47.9 ± 3.4 (mm)^3, the “Infarct Volume” value ([3]; temporary occlusion, 50/50/10 mg/kg i.p./i.p./i.v. (per hour), time b (15 min after clamping, 15 min before clamp removal, then 24 h), control 101.7 ± 9.1) was 35.5 ± 5.3 (mm)^3 and the “Infarct Volume” value ([3]; temporary occlusion, 50/50/10 mg/kg i.p./i.p./i.v. (per hour), time b, rats fasted overnight, control 61.9 ± 7.9) was 23.1 ± 4.9 (mm)^3. The “Damage Score, Hippocampus” value ([4]; scale 0 (no damage)-3 (severe), mean ± SE, 50 mg/kg orally, 2% acacia, time a (15 min pre, 4 h and 24 h postischemia), control 2.7 ± 0.2) was 1.7 ± 0.3.

With `CN(C)Cc1cc(C(C)(C)C)c(O)c(C(C)(C)C)c1` [4-[(dimethylamino)methyl]-2,6-bis(1,1-dimethylethyl)phenol] the inhibition in vivo at 50 mg/kg [1, 7] was 59.7%, the “Damage Score, Striatum” value ([2]; scale 0-3, mean ± SE, 100 mg/kg orally, 2% acacia, time b (2 h pre, 24 h postischemia), control 2.5 ± 0.5) was 0.8 ± 0.3 and the “Average Life Span” value (dystrophic mice (dy/dy)) was 120 days. For the same molecule, the “Damage Score, Hippocampus” value ([4]; scale 0-3, mean ± SE, 100 mg/kg orally, 2% acacia, time b (2 h pre, 24 h postischemia), control 2.8 ± 0.2) was 0.8 ± 0.4.

For `CCCN(CCC)Cc1cc(C(C)(C)C)c(O)c(C(C)(C)C)c1.Cl` [4-[(dipropylamino)methyl]-2,6-bis(1,1-dimethylethyl)phenol hydrochloride], the inhibition in vivo at 50 mg/kg [1, 7] was 64.4%, the “Damage Score, Striatum” value ([2]; scale 0-3, mean ± SE, 100 mg/kg orally, 2% acacia, time c (30 min pre, 4 h and 24 h postischemia), control 1.4 ± 0.3) was 1.2 ± 0.4 and the “Infarct Volume” value ([3]; temporary occlusion, 20/5 mg/kg i.v. (per hour), time d, control 123 ± 14) was 143 ± 12 (mm)^3. For the same molecule, the “Damage Score, Hippocampus” value ([4]; scale 0-3, mean ± SE, 100 mg/kg orally, 2% acacia, time c (30 min pre, 4 h and 24 h postischemia), control 2.5 ± 0.3) was 1.0 ± 0.4.

Molecule `CCNCc1cc(C(C)(C)C)c(O)c(C(C)(C)C)c1.Cl` [4-[(ethylamino)methyl]-2,6-bis(1,1-dimethylethyl)phenol hydrochloride] has an inhibition in vivo at 5 mg/kg ([1]; 5 mg/kg rat weight × 29, p.o. once daily, read-out: % Inhibition of Uninjected Paw Volume Inflammation, Days 16-30) of 27.9%, an inhibition in vivo at 10 mg/kg ([1]; 10 mg/kg rat weight × 29, p.o. once daily, read-out: % Inhibition of Uninjected Paw Volume Inflammation, Days 16-30) of 19.6% and an inhibition in vivo at 20 mg/kg ([1]; 20 mg/kg rat weight × 29, p.o. once daily, read-out: % Inhibition of Uninjected Paw Volume Inflammation, Days 16-30) of 50.8%. For the same molecule, the inhibition in vivo at 25 mg/kg ([1]; 25 mg/kg rat weight × 29, p.o. once daily, read-out: % Inhibition of Uninjected Paw Volume Inflammation, Days 16-30) was 96.5%, the “Damage Score, Striatum” value ([2]; scale 0-3, mean ± SE, 20 mg/kg / 5 mg/kg per hour i.v., 10% DMSO/TWEEN 80/NaCl, time d (immediately after ischemia, then continuous 24 h), control 2.37 ± 0.28) was 1.20 ± 0.42 and the “Infarct Volume” value ([3]; permanent occlusion, 20/5 mg/kg i.v. (per hour), time c, control 172 ± 19) was 122 ± 12 (mm)^3. The “Infarct Volume” value ([3]; temporary occlusion, 10/5 mg/kg i.v., time f (one hour after clamping, then upon clamp removal for 24 h), control 128 ± 17) was 74 ± 8 (mm)^3 and the “Damage Score, Hippocampus” value ([4]; scale 0-3, mean ± SE, 20 mg/kg / 5 mg/kg per hour i.v., 10% DMSO/TWEEN 80/NaCl, time d (immediately after ischemia, then continuous 24 h), control 2.83 ± 0.12) was 1.23 ± 0.47.

In the case of `CNCc1cc(C(C)(C)C)c(O)c(C(C)(C)C)c1.Cl` [4-[(methylamino)methyl]-2,6-bis(1,1-dimethylethyl)phenol hydrochloride], the inhibition in vivo at 50 mg/kg [1, 7] is reported as 119%, the “Damage Score, Striatum” value ([2]; scale 0-3, mean ± SE, 10 mg/kg / 10 mg/kg per hour i.v., saline, time d (immediately after ischemia, then continuous 24 h), control 2.6 ± 0.3) is reported as 1.97 ± 0.4 and the “Damage Score, Striatum” value ([2]; scale 0-3, mean ± SE, 50 mg/kg / 10 mg/kg per hour i.v., saline, time d (immediately after ischemia, then continuous 24 h), control 2.3 ± 0.4) is reported as 1.13 ± 0.4. For the same molecule, the “Infarct Volume” value ([3]; permanent occlusion, 50 mg/kg i.v. single dose, time e (10 min before occlusion), control 140 ± 23) was 123 ± 18 (mm)^3, the “Infarct Volume” value ([3]; permanent occlusion, 10/10 mg/kg i.v. (per hour), time c, control 145 ± 12) was 128 ± 11 (mm)^3 and the “Infarct Volume” value ([3]; permanent occlusion, 20/5 mg/kg i.v. (per hour), time c, control 133 ± 16) was 112 ± 7 (mm)^3. The “Infarct Volume” value ([3]; permanent occlusion, 20/10 mg/kg i.v. (per hour), time c, control 148 ± 9) was 90 ± 18 (mm)^3, the “Infarct Volume” value ([3]; permanent occlusion, 50/10 mg/kg i.v. (per hour), time c, control 142 ± 7) was 76 ± 12 (mm)^3 and the “antioxidative activity of liver lipids” value [5] was “increases the antioxidative activity of liver lipids”. For the same molecule, the “liver tissue regeneration following a partial hepatectomy” value [5] was “increasing liver tissue regeneration following a partial hepatectomy”, the “Damage Score, Hippocampus” value ([4]; scale 0-3, mean ± SE, 10 mg/kg / 10 mg/kg per hour i.v., saline, time d (immediately after ischemia, then continuous 24 h), control 2.4 ± 0.3) was 0.75 ± 0.3 and the “Damage Score, Hippocampus” value ([4]; scale 0-3, mean ± SE, 50 mg/kg / 10 mg/kg per hour i.v., saline, time d (immediately after ischemia, then continuous 24 h), control 2.6 ± 0.3) was 0.66 ± 0.3.

In the case of `CNCc1cc(C(C)(C)C)c(O)c(C(C)(C)C)c1` [N-methyl-3,5-di-t-butyl-4-hydroxybenzylamine], the “rate of blood deoxygenation” value [6] is given as “increase the rate of blood deoxygenation”.
